Read-outs that look alike come from different tables or passages of the source.
Tests used:
tubulin = biological target: T1, tubulin; assay: SPR (Biacore); supported by colchicine fluorescence competition, polymerization of purified pork tubulin and CD; format: binding, Sus scrofa
T1 construct: gene TUBB; purified tubulin (Cytoskeleton, Denver) immobilized on CM5 chip; with alpha-tubulin

A549 = assay: cells; set-up: SRB anti-proliferation assay against a panel of human tumour cell lines; details: Homo sapiens, A549
Method: (§1) The anti-proliferative activity of S9 was measured with SRB assay against a panel of human tumor cells, including oral epidermoid cancer, lung cancer, liver cancer, colon cancer, rhabdomyosarcoma, ovarian cancer, osteosarcoma, breast cancer, cervix cancer, stomach cancer, prostate cancer and leukemia cells. […] This advantage was also observed in the mini-set of colon cancer cell lines (Fig. 6A). […] A) Antiproliferative activity of S9 and wortmannin against a wide panel of tumor cell lines. IC50s plotted as mean±SD (µM) were from three separate experiments. B) Resistance factor (RF) of S9 and reference compounds in drug-resistant cancer cells. RF was calculated as the ratio of the IC50 value of the drug-resistant cells to that of the corresponding parental cells. C) S9 induces rapid apoptosis in human cancer cells. Rh30, A375, MKN-28 and U2OS cells were treated with S9 for 8 h. Apoptosis was measured by Annexin V-PI double staining. Apoptosis measured as Annexin-V positive cells were plotted. Data shown were mean±SD from three independent experiments. D) Rh30 (left panel) and SMMC7721 (right panel) xenograft growth inhibition after administration of S9. Rh30 and SMMC7721 nude mice were subcutaneously inoculated with a tumor fragment. The animals were randomly divided in groups when tumor volume reached 100 to 200 mm^3 and received i.p. injection of normal saline or S9 five times a week for two weeks. Tumor volumes were measured and relative tumor volumes were calculated as tumor volumeDn/tumor volumeD0. Data shown are the mean of six mice. Human colorectal carcinoma LOVO, human breast carcinoma MDA-MB-468, human prostate carcinoma PC3, human osteosarcoma U2OS cells were from American Type Culture Collection (ATCC, Manassas, VA); human lung adenocarcinoma NCI-H23 cells were obtained from the National Cancer Institute (NCI); rhabdomyosarcoma (RMS) Rh30 cells were generous gift from Dr. P.J. Houghton (St. Jude Children's Research Hospital, Memphis, TN). MDA-MB-468, Rh30, LOVO, NCI-H23 and U2OS cells were grown in RPMI-1640 medium supplemented with 10% (v/v) fetal bovine serum (FBS; GIBCO, Grand Island, NY), 2 mM L-glutamine, 100 U/ml benzylpenicillin, 100 µg/ml streptomycin and 10 mM HEPES (pH 7.4). PC3 cells were grown in Ham's F12 (GIBCO, Grand Island, NY) with 10% FBS. CHO (pCORON1000-EGFP-Akt) was purchased from GE Healthcare (EGFP: Enhanced Green Fluorescence Protein) and propagated in F-12 Ham medium with Glutamax supplemented with 10% FBS, penicillin-streptomycin (50 U/ml) and geneticin (0.5 mg/ml, Sigma-Aldrich, St. Louis, MO). Rest of cells used in this study were grown as described previously. All cells were cultured in a highly humidified atmosphere containing 5% CO2 at 37°C.

BEL-7402 = assay: cells; set-up: SRB anti-proliferation assay against a panel of human tumour cell lines; details: Homo sapiens, Bel-7402; read-out: IC50 (μM) S9
Method: as §1

HCT-116 = assay: cells; set-up: SRB anti-proliferation assay against a panel of human tumour cell lines; details: Homo sapiens, HCT-116
Method: as §1

HL60/MX2 = assay: cells; set-up: SRB anti-proliferation assay against a panel of human tumour cell lines; details: Homo sapiens, HL60/MX2
Method: as §1

HL60 = assay: cells; set-up: SRB anti-proliferation assay against a panel of human tumour cell lines; details: Homo sapiens, HL-60
Method: as §1

HT-29 = assay: cells; set-up: SRB anti-proliferation assay against a panel of human tumour cell lines; details: Homo sapiens, HT-29
Method: as §1

Hela = assay: cells; set-up: SRB anti-proliferation assay against a panel of human tumour cell lines; details: Homo sapiens, HeLa; read-out: IC50 (μM) S9
Method: as §1

Hep-G2 = assay: cells; set-up: SRB anti-proliferation assay against a panel of human tumour cell lines; details: Homo sapiens, HepG2
Method: as §1

K562/A02 = assay: cells; set-up: SRB anti-proliferation assay against a panel of human tumour cell lines; details: Homo sapiens, K562/A02; read-out: IC50 (μM) S9
Method: as §1

K562/G01 = assay: cells; set-up: SRB anti-proliferation assay against a panel of human tumour cell lines; details: Homo sapiens, K562
Method: as §1

K562 = assay: cells; set-up: SRB anti-proliferation assay against a panel of human tumour cell lines; details: Homo sapiens, K562
Method: as §1

KB-3-1 = assay: cells; set-up: SRB anti-proliferation assay against a panel of human tumour cell lines; details: Homo sapiens, KB 3-1
Method: as §1

KB-8-5-11 = assay: cells; set-up: SRB anti-proliferation assay against a panel of human tumour cell lines
Method: as §1

KB-8-5 = assay: cells; set-up: SRB anti-proliferation assay against a panel of human tumour cell lines; details: read-out: IC50 (μM) S9
Method: as §1

KB-V1 = assay: cells; set-up: SRB anti-proliferation assay against a panel of human tumour cell lines; details: Homo sapiens, KB-V1
Method: as §1

LOVO = assay: cells; set-up: SRB anti-proliferation assay against a panel of human tumour cell lines; details: Homo sapiens, LoVo
Method: as §1

MCF-7/ADR = assay: cells; set-up: SRB anti-proliferation assay against a panel of human tumour cell lines; details: Homo sapiens, NCI/ADR-RES
Method: as §1

MCF-7 = assay: cells; set-up: SRB anti-proliferation assay against a panel of human tumour cell lines; details: Homo sapiens, MCF7; read-out: IC50 (μM) S9
Method: as §1

MDA-MB-468 = assay: cells; set-up: SRB anti-proliferation assay against a panel of human tumour cell lines; details: Homo sapiens, MDA-MB-468
Method: as §1

MKN-28 = assay: cells; set-up: SRB anti-proliferation assay against a panel of human tumour cell lines; details: Homo sapiens, MKN-28
Method: as §1

MKN-45 = assay: cells; set-up: SRB anti-proliferation assay against a panel of human tumour cell lines; details: Homo sapiens, MKN-45; read-out: IC50 (μM) S9
Method: as §1

NCI-H23 = assay: cells; set-up: SRB anti-proliferation assay against a panel of human tumour cell lines; details: Homo sapiens, NCI-H23
Method: as §1

OV-CAR-5 = assay: cells; set-up: SRB anti-proliferation assay against a panel of human tumour cell lines; details: Homo sapiens, OVCAR-5; read-out: IC50 (μM) S9
Method: as §1

PC3 = assay: cells; set-up: SRB anti-proliferation assay against a panel of human tumour cell lines; details: Homo sapiens, PC-3; read-out: IC50 (μM) S9
Method: as §1

Rh1 = assay: cells; set-up: SRB anti-proliferation assay against a panel of human tumour cell lines; details: Homo sapiens, RH-1; read-out: IC50 (μM) S9
Method: as §1

Rh30/rapa = assay: cells; set-up: SRB anti-proliferation assay against a panel of human tumour cell lines; details: Rh30
Method: as §1

Rh30 = assay: cells; set-up: SRB anti-proliferation assay against a panel of human tumour cell lines; details: Rh30
Method: as §1

SGC-7901 = assay: cells; set-up: SRB anti-proliferation assay against a panel of human tumour cell lines; details: Homo sapiens, SGC-7901
Method: as §1

SK-OV-3 = assay: cells; set-up: SRB anti-proliferation assay against a panel of human tumour cell lines; details: Homo sapiens, SK-OV-3
Method: as §1

U2OS = assay: cells; set-up: SRB anti-proliferation assay against a panel of human tumour cell lines; details: Homo sapiens, U2OS
Method: as §1

SMILES: C=C1CC(Cn2c(-c3ccccc3)cc3cc(OCOC)ccc32)OC1=O (stereo not shown) [S9]
- Kd (tubulin): 11.1 µM
- IC50 (A549; read-out: IC50 (μM) S9): 14.8 ± 2.2 µM
- IC50 (BEL-7402): 11.8 ± 1.6 µM
- IC50 (HCT-116; read-out: IC50 (μM) S9): 19.6 ± 1.9 µM
- IC50 (HL60/MX2; read-out: IC50 (μM) S9): 2.41 ± 1.28 µM
- IC50 (HL60; read-out: IC50 (μM) S9): 2.25 ± 0.74 µM
- IC50 (HT-29; read-out: IC50 (μM) S9): 5.88 ± 0.28 µM
- IC50 (Hela): 6.36 ± 1.51 µM
- IC50 (Hep-G2; read-out: IC50 (μM) S9): 4.55 ± 1.8 µM
- IC50 (K562/A02): 2.5 ± 0.01 µM
- IC50 (K562/G01; read-out: IC50 (μM) S9): 2.17 µM
- IC50 (K562; read-out: IC50 (μM) S9): 2.2 ± 0.33 µM
- IC50 (KB-3-1; read-out: IC50 (μM) S9): 20.2 ± 3.8 µM
- IC50 (KB-8-5-11; read-out: IC50 (μM) S9): 14.9 ± 1.3 µM
- IC50 (KB-8-5): 28.8 ± 7.3 µM
- IC50 (KB-V1; read-out: IC50 (μM) S9): 13.3 ± 2.2 µM
- IC50 (LOVO; read-out: IC50 (μM) S9): 5.05 ± 0.5 µM
- IC50 (MCF-7/ADR; read-out: IC50 (μM) S9): 5.73 ± 1.68 µM
- IC50 (MCF-7): 4.86 ± 1.34 µM
- IC50 (MDA-MB-468; read-out: IC50 (μM) S9): 14.1 ± 4.6 µM
- IC50 (MKN-28; read-out: IC50 (μM) S9): 2.38 ± 0.39 µM
- IC50 (MKN-45): 2.62 ± 0.26 µM
- IC50 (NCI-H23; read-out: IC50 (μM) S9): 9.02 ± 0.05 µM
- IC50 (OV-CAR-5): 15.4 ± 2.9 µM
- IC50 (PC3): 5.34 ± 1.39 µM
- IC50 (Rh1): 6.14 ± 0.05 µM
- IC50 (Rh30/rapa; read-out: IC50 (μM) S9): 3.85 ± 0.95 µM
- IC50 (Rh30; read-out: IC50 (μM) S9): 3.24 ± 1.2 µM
- IC50 (SGC-7901; read-out: IC50 (μM) S9): 11.6 ± 2.41 µM
- IC50 (SK-OV-3; read-out: IC50 (μM) S9): 25.5 ± 0.1 µM
- IC50 (U2OS; read-out: IC50 (μM) S9): 5.9 ± 0.38 µM

SMILES: COC[C@H]1OC(=O)c2coc3c2[C@@]1(C)C1=C(C3=O)[C@@H]2CCC(=O)[C@@]2(C)C[C@H]1OC(C)=O [wortmannin]
- IC50 (A549; read-out: IC50 (μM) wortmannin): 9.33 ± 6.1 µM
- IC50 (HCT-116; read-out: IC50 (μM) wortmannin): 41.5 ± 4.5 µM
- IC50 (HL60/MX2; read-out: IC50 (μM) wortmannin): 1.47 ± 0.6 µM
- IC50 (HL60; read-out: IC50 (μM) wortmannin): 7.55 ± 2.84 µM
- IC50 (HT-29; read-out: IC50 (μM) wortmannin): 18 ± 2.4 µM
- IC50 (Hep-G2; read-out: IC50 (μM) wortmannin): 12.3 ± 2.6 µM
- IC50 (K562/G01; read-out: IC50 (μM) wortmannin): 10.4 ± 4.52 µM
- IC50 (K562; read-out: IC50 (μM) wortmannin): 54.8 ± 6.3 µM
- IC50 (KB-3-1; read-out: IC50 (μM) wortmannin): 27.2 ± 3.2 µM
- IC50 (KB-8-5-11; read-out: IC50 (μM) wortmannin): 15.7 ± 4.1 µM
- IC50 (KB-V1; read-out: IC50 (μM) wortmannin): 16.8 ± 2.2 µM
- IC50 (LOVO; read-out: IC50 (μM) wortmannin): 12.2 ± 0.42 µM
- IC50 (MCF-7/ADR; read-out: IC50 (μM) wortmannin): 47.2 ± 6.45 µM
- IC50 (MDA-MB-468; read-out: IC50 (μM) wortmannin): 29.3 ± 6.6 µM
- IC50 (MKN-28; read-out: IC50 (μM) wortmannin): 12.8 ± 2.8 µM
- IC50 (NCI-H23; read-out: IC50 (μM) wortmannin): 5.57 ± 1.15 µM
- IC50 (Rh30/rapa; read-out: IC50 (μM) wortmannin): 0.73 ± 0.51 µM
- IC50 (Rh30; read-out: IC50 (μM) wortmannin): 11 ± 3.02 µM
- IC50 (SGC-7901; read-out: IC50 (μM) wortmannin): 3.94 ± 1.74 µM
- IC50 (SK-OV-3; read-out: IC50 (μM) wortmannin): 18 ± 6.3 µM
- IC50 (U2OS; read-out: IC50 (μM) wortmannin): 26.7 ± 4.31 µM

Source: PMC2654064, “S9, a Novel Anticancer Agent, Exerts Its Anti-Proliferative Activity by Interfering with Both PI3K-Akt-mTOR Signaling and Microtubule Cytoskeleton” (PLoS ONE, 2009)
